Reference: the Kinase Knowledgebase extract (Sharma et al. 2016)
Where “and” joins values, the source holds several entries; their conditions need not be identical. Equal entries are not always repeated.

Columns and labels:
PIK3CD (Human) = PIK3CD (Human) (UniProt O00329); assay: Enzyme Assay
PIK3CA (human) = PIK3CA (human) (UniProt P42336); assay: Inhibition of PIK3CA Kinase Activity
PIK3CA (human), sequence (P42336 whole entry, looked up): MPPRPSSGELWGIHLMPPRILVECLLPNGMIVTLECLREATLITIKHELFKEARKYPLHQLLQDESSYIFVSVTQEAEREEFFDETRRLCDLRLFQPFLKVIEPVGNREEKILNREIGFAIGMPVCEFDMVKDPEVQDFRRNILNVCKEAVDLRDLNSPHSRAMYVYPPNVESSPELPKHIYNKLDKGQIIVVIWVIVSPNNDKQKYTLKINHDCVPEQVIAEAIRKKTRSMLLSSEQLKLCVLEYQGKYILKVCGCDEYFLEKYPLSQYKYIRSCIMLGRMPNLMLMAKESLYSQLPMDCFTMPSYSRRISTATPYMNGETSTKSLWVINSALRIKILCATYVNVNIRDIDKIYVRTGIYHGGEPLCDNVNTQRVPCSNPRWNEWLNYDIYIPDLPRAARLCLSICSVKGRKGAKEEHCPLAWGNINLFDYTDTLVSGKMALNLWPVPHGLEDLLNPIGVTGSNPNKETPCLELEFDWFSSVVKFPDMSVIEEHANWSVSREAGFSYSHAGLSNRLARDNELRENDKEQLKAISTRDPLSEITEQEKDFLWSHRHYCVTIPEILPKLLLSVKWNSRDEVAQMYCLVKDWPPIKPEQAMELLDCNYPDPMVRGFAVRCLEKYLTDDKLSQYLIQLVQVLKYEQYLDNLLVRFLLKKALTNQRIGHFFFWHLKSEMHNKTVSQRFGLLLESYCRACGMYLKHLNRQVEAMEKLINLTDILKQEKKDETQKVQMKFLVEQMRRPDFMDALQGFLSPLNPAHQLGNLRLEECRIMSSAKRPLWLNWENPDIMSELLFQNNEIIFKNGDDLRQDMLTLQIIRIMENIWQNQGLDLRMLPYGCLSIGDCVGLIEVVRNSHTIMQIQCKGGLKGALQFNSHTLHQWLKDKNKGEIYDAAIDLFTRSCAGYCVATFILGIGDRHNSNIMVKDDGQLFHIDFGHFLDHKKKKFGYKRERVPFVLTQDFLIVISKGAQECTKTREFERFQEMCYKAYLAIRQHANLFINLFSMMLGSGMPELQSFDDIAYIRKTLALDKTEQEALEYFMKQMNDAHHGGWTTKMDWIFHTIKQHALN

PIK3CD (Human), sequence (O00329 whole entry, looked up): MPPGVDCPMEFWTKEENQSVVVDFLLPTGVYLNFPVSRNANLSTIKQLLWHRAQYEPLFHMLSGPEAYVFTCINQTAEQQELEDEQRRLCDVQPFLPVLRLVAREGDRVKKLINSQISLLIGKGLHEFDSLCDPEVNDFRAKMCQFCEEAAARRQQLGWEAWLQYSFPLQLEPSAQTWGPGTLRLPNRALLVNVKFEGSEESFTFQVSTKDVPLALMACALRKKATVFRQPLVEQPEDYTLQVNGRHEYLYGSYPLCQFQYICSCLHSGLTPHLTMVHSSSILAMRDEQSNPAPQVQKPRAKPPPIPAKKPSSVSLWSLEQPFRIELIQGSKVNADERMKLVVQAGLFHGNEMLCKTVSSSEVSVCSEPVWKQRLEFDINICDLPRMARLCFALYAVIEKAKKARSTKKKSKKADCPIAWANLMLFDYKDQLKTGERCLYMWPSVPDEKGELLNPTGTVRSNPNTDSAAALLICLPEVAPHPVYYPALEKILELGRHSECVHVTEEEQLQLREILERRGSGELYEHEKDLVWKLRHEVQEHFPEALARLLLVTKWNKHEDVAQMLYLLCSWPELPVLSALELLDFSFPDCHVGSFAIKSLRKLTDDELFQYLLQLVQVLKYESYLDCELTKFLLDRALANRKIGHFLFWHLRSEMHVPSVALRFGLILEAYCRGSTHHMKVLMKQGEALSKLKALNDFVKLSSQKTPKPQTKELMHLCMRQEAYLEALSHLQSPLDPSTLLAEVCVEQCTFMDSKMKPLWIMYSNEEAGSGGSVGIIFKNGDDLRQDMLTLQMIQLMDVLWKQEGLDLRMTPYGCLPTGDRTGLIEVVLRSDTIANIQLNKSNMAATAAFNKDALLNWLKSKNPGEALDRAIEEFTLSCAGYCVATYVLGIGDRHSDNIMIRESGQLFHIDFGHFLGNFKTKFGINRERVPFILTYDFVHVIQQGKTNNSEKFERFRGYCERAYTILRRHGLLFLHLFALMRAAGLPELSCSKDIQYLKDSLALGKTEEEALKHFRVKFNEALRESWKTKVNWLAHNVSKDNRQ

With `Cc1nc(-c2cn3c(n2)-c2ccc(-c4cnn(C)c4C4CN(C(C)C)CCO4)cc2OCC3)n(C(C)C)n1` (stereo not given) the IC50 (PIK3CD (Human)) was 0.0012 µM and 0.00108 µM and the IC50 (PIK3CA (human)) was 0.0179 µM and 0.107 µM and 0.0415 µM.
`Cc1nc(-c2cn3c(n2)-c2ccc(-c4cn[nH]c4C4CCCN(C(C)C)C4)cc2OCC3)n(C(C)C)n1` (stereo not given) was tested, and the IC50 (PIK3CA (human)) was 0.0229 µM and 0.00746 µM.
`Cc1nc(-c2cn3c(n2)-c2ccc(N4CCCC45CCCN(C(C)C)C5)cc2OCC3)n(C(C)C)n1` (stereo not given) gave an IC50 (PIK3CA (human)) of 0.0728 µM.
`Cc1nc(-c2cn3c(n2)-c2ccc(-c4ccnn4[C@@H]4CCCN(C(C)(C)CO)C4)cc2OCC3)n(C(C)C)n1` showed an IC50 (PIK3CA (human)) of 0.0108 µM.
In the case of `Cc1nc(-c2cn3c(n2)-c2ccc(OC4(C)CCN(C(C)C)C4)cc2OCC3)n(C(C)C)n1` (stereo not given), the IC50 (PIK3CA (human)) is reported as 0.00919 µM.
With `CC(C)n1ncnc1-c1cn2c(n1)-c1cc([S+]([O-])C3CCN(C(C)(C)C)CC3)ccc1OCC2` (stereo not given) the IC50 (PIK3CA (human)) was 0.149 µM.
`Cc1nc(-c2cn3c(n2)-c2cc([C@H](C)N4CCN(C(C)C)CC4)c(C)cc2OCC3)n(C(C)C)n1` was tested, and the IC50 (PIK3CA (human)) was 0.00881 µM.
With `Cc1nc(-c2cn3c(n2)-c2cnc(N4CCCC4C4CCCCN4C)cc2OCC3)n(CC(F)(F)F)n1` (stereo not given) the IC50 (PIK3CA (human)) was 0.00185 µM and 0.0019 µM.
In the case of `CC(C)n1ncnc1-c1cn2c(n1)-c1cnc(N3CCCC3CN3CCCC3)cc1OCC2` (stereo not given), the IC50 (PIK3CA (human)) is reported as 0.0129 µM.
